{
  "source": "paper PMC8682738",
  "about": "“Constrained peptides mimic a viral suppressor of RNA silencing” (Nucleic Acids Research, 2021)",
  "type_in_all_cases": "binding",
  "key": {"pal-DNA": {"tested_on": "pal-DNA", "assay": "EMSA with ds DNA analog of pal-RNA", "conditions": "fluorescein-labeled peptide 3 μM, oligonucleotide 9 μM", "procedure": "Electrophoretic mobility shift assays (EMSAs) were performed using a Bio-Rad Mini-Protean gel system paired with a direct current (DC) power source (PowerPac™ HC, Bio-Rad). […] After incubation, bound RNA was resolved from peptide-free RNA using 10% non-denaturing polyacrylamide gels at 120 V in running buffer (25 mM Tris (pH 8.0), 200 mM glycine, 20 mM NaCl) at 4°C for 1 h. Visualization of fluorescent gel-bound species was conducted using a Typhoon Trio + fluorescence scanner (GE Healthcare Life Sciences). For nucleic acid visualization, gels were stained using 2 μl of SYBR™ gold nucleic acid gel dye (Molecular Probes) in 20 ml of TAE buffer (40 mM Tris, 1 mM EDTA, 20 mM acetic acid) for 45 min at RT before being visualized using a FluorChem™ gel documentation system (Alpha Innotech). To assess B3 binding to different ds RNA sequences (Supplementary Figure S20), 6 μl solutions containing hairpin RNA (c = 1 μM) and fluorescein-labeled B3 (c = 2 μM) were incubated in binding buffer (TAE and 10% glycerol) at RT for 1 h, and then resolved using 15% non-denaturing polyacrylamide gels (acrylamide/bis-acrylamide (19:1) in TAE) at 150 V in running buffer (TAE) at 4°C for 1.5 h. Visualization of fluorescent gel-bound species was conducted using a Bio-Rad ChemiDoc (Bio-Rad). […]"}, "ds RNA hairpins HP 1–5": {"tested_on": "ds RNA hairpins HP 1–5", "assay": "EMSA with ds RNA hairpins HP 1-5", "conditions": "fluorescein-labeled B3 2 μM, hairpin RNA 1 μM, TAE and 10% glycerol, RT 1 h", "procedure": "Electrophoretic mobility shift assays (EMSAs) were performed using a Bio-Rad Mini-Protean gel system paired with a direct current (DC) power source (PowerPac™ HC, Bio-Rad). Typically, 6 μl solutions containing ds RNA (c = 3 μM) and fluorescein-labeled peptide (c = 6 μM) were incubated in binding buffer (10 mM Tris (pH 8.0), 0.5 mM EDTA, 12.5% glycerol and 150 mM KCl) at 4°C for 1 h. After incubation, bound RNA was resolved from peptide-free RNA using 10% non-denaturing polyacrylamide gels at 120 V in running buffer (25 mM Tris (pH 8.0), 200 mM glycine, 20 mM NaCl) at 4°C for 1 h. Visualization of fluorescent gel-bound species was conducted using a Typhoon Trio + fluorescence scanner (GE Healthcare Life Sciences). For nucleic acid visualization, gels were stained using 2 μl of SYBR™ gold nucleic acid gel dye (Molecular Probes) in 20 ml of TAE buffer (40 mM Tris, 1 mM EDTA, 20 mM acetic acid) for 45 min at RT before being visualized using a FluorChem™ gel documentation system (Alpha Innotech). To assess B3 binding to different ds RNA sequences (Supplementary Figure S20), 6 μl solutions containing hairpin RNA (c = 1 μM) and fluorescein-labeled B3 (c = 2 μM) were incubated in binding buffer (TAE and 10% glycerol) at RT for 1 h, and then resolved using 15% non-denaturing polyacrylamide gels (acrylamide/bis-acrylamide (19:1) in TAE) at 150 V in running buffer (TAE) at 4°C for 1.5 h. […]"}, "pre-miR-21": {"molecular_target": "pre-miR-21", "assay": "ITC with pre-miR-21", "procedure": "(§1) Isothermal titration calorimetry (ITC) was conducted using a MicroCal VP-ITC (Malvern Panalytical). Before measurement, oligonucleotide and peptide samples were dissolved in PBS and degassed using a ThermoVac (Malvern Panalytical) and heated to 30°C. N-terminally acetylated peptides (c = 3–12 μM) were then transferred into the sample cell and oligonucleotides (c = 12–72 μM) were transferred into the syringe. 35 Injections per measurement were performed at 30°C (8 μl injection volume, 2 s injection time, 180 s spacing, high feedback mode) with an initial delay of 60 s and a stirring speed of 307 rpm. Measurements were performed in triplicate. Using the MicroCal LLC ITC software (Origin; OriginLab Corporation), the heat associated with each injection was calculated by integrating the area under the curve in microcalories per second [μca/s] versus time [min] for each injection and then normalized to concentration. A ‘single set of identical binding sites’ model was used to fit the binding curves from which thermodynamic binding parameters (ΔG, ΔH, ΔS, N and Kd) were obtained."}, "ds miR-21": {"molecular_target": "ds miR-21", "assay": "ITC with ds miR-21", "procedure": "as §1"}},
  "note": "Positions of bridges follow the written chain, without caps; N, C: chain ends. Non-standard residues stand in square brackets, D forms with d. Residues, ends and D or L forms follow the SMILES beside them. *: point of attachment. FITC = O=C1OC2(c3ccc(O)cc3Oc3cc(O)ccc32)c2ccc(NC(=S)*)cc21; R8 = C=CCCCCCC[C@@](C)(N)C(=O)O; S5 = C=CCCC[C@](C)(N)C(=O)O; AEEA = NCCOCCOCC(=O)O",
  "data": [
    {"smiles": "CC(C)C[C@@H]1NC(=O)[C@@](C)(NC(=O)[C@H](CO)NC(=O)[C@H](CCCNC(=N)N)NC(=O)[C@H](CCCNC(=N)N)NC(=O)[C@H](CCC(N)=O)NC(=O)[C@H](CCC(=O)O)NC(=O)[C@H](CO)NC(=O)[C@@H]2CCCN2C(=O)[C@H](CO)NC(=O)[C@H](CCCCN)NC(=O)[C@H](Cc2c[nH]cn2)NC(=O)CNC(=O)[C@H](CCCNC(=N)N)NC(=O)[C@H](CCC(=O)O)NC(=O)[C@H](CCCCN)NC(=O)[C@H](CCCNC(=N)N)NC(=O)[C@H](CC(N)=O)NC(=O)[C@]2(C)CCCC=CCCCCCC[C@@](C)(NC(=O)[C@H](CCC(N)=O)NC(=O)[C@H](CCCCN)NC(=O)[C@H](CCCCN)NC(=O)COCCOCCNC(=S)Nc3ccc4c(c3)C(=O)OC43c4ccc(O)cc4Oc4cc(O)ccc43)C(=O)N[C@@H](CCC(N)=O)C(=O)N[C@@H](CCCNC(=N)N)C(=O)N[C@@H](CCCCN)C(=O)N[C@@H](CCCNC(=N)N)C(=O)N[C@@H](Cc3c[nH]cn3)C(=O)N[C@@H](CCCCN)C(=O)N2)CCCC=CCCC[C@@](C)(C(=O)N[C@@H](CCCNC(=N)N)C(N)=O)NC(=O)[C@H](Cc2c[nH]cn2)NC(=O)[C@H](Cc2c[nH]c3ccccc23)NC1=O", "note": "[C1] ({FITC-AEEA}-KKQ[R8]QRKRHK[S5]NRKERGHKSPSEQRRS[S5]LWH[S5]R-NH2; staple 4-11, 28-32)", "values": [
      {"measurement": "binding to ds DNA analog of pal-RNA in EMSA", "setting": "pal-DNA", "result": "did not bind"}
    ]},
    {"smiles": "CC(C)C[C@H](NC(=O)[C@]1(C)CCCC=CCCC[C@](C)(NC(=O)[C@H](CCC(=O)O)NC(=O)[C@H](CO)NC(=O)[C@@H]2CCCN2C(=O)[C@H](CO)NC(=O)[C@H](CCCCN)NC(=O)[C@H](Cc2c[nH]cn2)NC(=O)CNC(=O)[C@H](CCCNC(=N)N)NC(=O)[C@]2(C)CCCC=CCCC[C@](C)(NC(=O)[C@H](CCCCN)NC(=O)[C@H](Cc3c[nH]cn3)NC(=O)[C@H](CCCNC(=N)N)NC(=O)[C@H](CCCCN)NC(=O)[C@H](CCCNC(=N)N)NC(=O)[C@H](CCC(N)=O)NC(=O)[C@H](C)NC(=O)[C@H](CCC(N)=O)NC(=O)[C@H](CCCCN)NC(=O)[C@H](CCCCN)NC(=O)COCCOCCNC(=S)Nc3ccc4c(c3)C(=O)OC43c4ccc(O)cc4Oc4cc(O)ccc43)C(=O)N[C@@H](CC(N)=O)C(=O)N[C@@H](CCCNC(=N)N)C(=O)N[C@@H](CCCCN)C(=O)N2)C(=O)N[C@@H](CCCNC(=N)N)C(=O)N[C@@H](CCCNC(=N)N)C(=O)N[C@@H](CO)C(=O)N1)C(=O)N[C@@H](Cc1c[nH]c2ccccc12)C(=O)N[C@@H](Cc1c[nH]cn1)C(=O)N[C@@H](C)C(=O)N[C@@H](CCCNC(=N)N)C(N)=O", "note": "[B3] ({FITC-AEEA}-KKQAQRKRHK[S5]NRK[S5]RGHKSPSE[S5]RRS[S5]LWHAR-NH2; staple 11-15, 24-28)", "values": [
      {"measurement": "binding to ds DNA analog of pal-RNA in EMSA", "setting": "pal-DNA", "result": "did not bind"},
      {"measurement": "binding to ds RNA hairpins in EMSA", "setting": "ds RNA hairpins HP 1–5", "result": "showed binding to each hairpin"},
      {"measurement": "Kd", "setting": "pre-miR-21", "result": "0.075 ± 0.008", "unit": "µM"},
      {"measurement": "Kd", "setting": "ds miR-21", "result": "0.018 ± 0.002", "unit": "µM"}
    ]}
  ]
}
